Measurements published in US5834259A, “Process and composition for preparing D-aspartic acid” (Monsanto Company, priority 1996, dated 1998).

Key:
Type in all cases: biochemical, E. coli K12
[1] = target: T1, L-aspartate-α-decarboxylase (Escherichia coli, UniProt P0A790); assay: Re-treatment of Example 3 supernatant fluid with fresh cells (Example 4); settings: 37° C.
T1 construct: expressed in transfected cells; host or cells: E. coli W3110 transformed with pIF309 = strain NS3291 (ATCC 98675), whole cells
T1 sequence (P0A790 25-126): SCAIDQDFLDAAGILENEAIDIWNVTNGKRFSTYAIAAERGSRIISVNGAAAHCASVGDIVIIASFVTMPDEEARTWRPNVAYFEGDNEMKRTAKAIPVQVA
T1 sequence (P0A790 1-24): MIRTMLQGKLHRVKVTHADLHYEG
Text: In all of the Examples herein, D- and L-aspartic acid isomers were quantified by HPLC using the following precolumn derivatization method. Aspartic acid was converted into diastereomers using ortho-phthalaldehyde and N-acetyl-L-cysteine. Separation of the diastereomers was achieved on a Supelcosil™ LC-18DB, 3μ, 150×4.6 mm column using a mobile phase of A: 20% methanol/80% triethylamine phosphate and B: methanol, and a step gradient as follows: […]
In this Example the supernatant fluid from Example 3 was re-treated with fresh cells. The reaction from Example 3, stopped at 68 hours, was centrifuged for 45 minutes in a GS-3 rotor at 7000 rpm. The supernatant fluid, 990 ml, was separated from the cells. 963 ml of this supernatant fluid was mixed with 137 ml fresh cells and placed in a 2 L fermentor. Bioconversion took place with mixing at 300 rpm, without automatic pH control and at a temperature of 37° C. Samples, approximately 1 ml, were removed over time and analyzed as in Example 3.

[2] = target: T1, L-aspartate-α-decarboxylase; assay: Re-use of cells on fresh 0.5M D/L-aspartate (Example 5); settings: re-used cells, 37° C.
Experimental: Cells that had already been used in Example 3 were put in fresh substrate to determine if they were still active.
Fresh D/L-aspartate substrate was prepared as previously described in Example 3. The cells from Example 3 were resuspended in deionized H2 O and made up to 100 ml. The pH of the substrate (900 ml, 0.5M D/L-Asp) was adjusted to 7.0 with NaOH. After placing in the 2 L fermentor, the cells (100 ml) were added. There was no pH control and deionized H2 O was used for substrate. Samples were removed over time, centrifuged and the supernatant fluid diluted appropriately for both D- and L-aspartic acid determination. Temperature was set at 37° C.

[3] = target: T1, L-aspartate-α-decarboxylase; assay: 1.0M D/L-aspartate, 50 g/l cells, reaction B (Example 6); settings: 37° C.
Experimental: 1.0M D/L-aspartate was tested as a substrate for two enzyme cell loads, 100 g/l cells, referred to here as reaction "A", and 50 g/l cells, referred to here as reaction "B".
133.1 g of D/L-aspartic acid was dissolved in approximately 600 ml deionized H2 O and pH was adjusted to 7.0 with NaOH, using 100 ml of 10N NaOH and a small amount of 1.0N NaOH. The substrate for reaction A was brought to 963 ml with deionized H2 O. The reaction was started with 137 ml cells that were stored in the cold room. For reaction B, the substrate was brought to a volume of 981.5 ml. The reaction was started with […] cells.
Both reactions were carried out in 2 L fermentors at pH 7.0 without constant adjustments and at 37° C. Samples were removed over time, centrifuged and the supernatant fluid was diluted and submitted for D- and L-aspartic acid HPLC analysis.

[4] = target: T1, L-aspartate-α-decarboxylase; assay: NH4OH neutralized 1.0M D/L-aspartate substrate (Example 7); settings: for concentration in supernatant fluid / percent remaining: 1.0M, NH4OH neutralized, 37° C.
Experimental: Cells were stored frozen at -80° C. 133.1 g (1 mol) D/L-aspartic acid was dissolved in approximately 600 ml deionized H2 O and adjusted to a pH of about 7 with concentrated NH4 OH. The final volume of substrate was brought to 963 ml to which was added 137 ml cells, freshly thawed. The mixture was placed in the 2 L fermentor and the temperature adjusted to 37° C. No automatic pH control was used, however, the pH was monitored as samples were removed and the pH adjusted with 50% NH4 OH. Samples, approximately 1 ml, were removed periodically, centrifuged, and the supernatant fluid was stored frozen prior to diluting and HPLC analysis.

N[C@H](CC(=O)O)C(=O)O [D-Asp, D-aspartic acid]
concentration in supernatant fluid ([1]; 0.0000 hr): 21.450 mg/mL
concentration in supernatant fluid ([1]; 2.7500 hr): 21.350 mg/mL
percent remaining ([1]; 2.7500 hr): 99.534%
concentration in supernatant fluid ([1]; 13.500 hr): 21.190 mg/mL
percent remaining ([1]; 13.500 hr): 98.788%
concentration in supernatant fluid ([1]; 15.000 hr): 20.770 mg/mL
percent remaining ([1]; 15.000 hr): 96.830%
concentration in supernatant fluid ([1]; 19.500 hr): 21.480 mg/mL
percent remaining ([1]; 19.500 hr): 100.14%
concentration in supernatant fluid ([1]; 23.500 hr): 20.880 mg/mL
percent remaining ([1]; 23.500 hr): 97.343%
concentration in supernatant fluid ([1]; 39.000 hr): 19.080 mg/mL
percent remaining ([1]; 39.000 hr): 88.951%
concentration in supernatant fluid ([1]; 47.000 hr): 17.280 mg/mL
percent remaining ([1]; 47.000 hr): 80.559%
concentration in supernatant fluid ([1]; 51.750 hr): 17.010 mg/mL
percent remaining ([1]; 51.750 hr): 79.301%
concentration in supernatant fluid ([1]; 68.500 hr): 14.900 mg/mL
percent remaining ([1]; 68.500 hr): 69.464%
concentration in supernatant fluid ([2]; 0.0000 hr): 30.850 mg/mL
concentration in supernatant fluid ([2]; 6.2500 hr): 30.820 mg/mL
percent remaining ([2]; 6.2500 hr): 99.903%
concentration in supernatant fluid ([2]; 15.250 hr): 29.870 mg/mL
percent remaining ([2]; 15.250 hr): 96.823%
concentration in supernatant fluid ([2]; 25.750 hr): 28.250 mg/mL
percent remaining ([2]; 25.750 hr): 91.572%
concentration in supernatant fluid ([2]; 28.000 hr): 27.980 mg/mL
percent remaining ([2]; 28.000 hr): 90.697%
concentration in supernatant fluid ([2]; 44.250 hr): 25.000 mg/mL
percent remaining ([2]; 44.250 hr): 81.037%
concentration in supernatant fluid ([2]; 63.500 hr): 21.760 mg/mL
percent remaining ([2]; 63.500 hr): 70.535%
concentration in supernatant fluid ([2]; 65.000 hr): 20.340 mg/mL
percent remaining ([2]; 65.000 hr): 65.932%
concentration in supernatant fluid ([3]; 0.0000 hr): 56.730 mg/mL
concentration in supernatant fluid ([3]; 2.0000 hr): 52.420 mg/mL
concentration in supernatant fluid ([3]; 4.5000 hr): 51.340 mg/mL
concentration in supernatant fluid ([3]; 7.0000 hr): 50.470 mg/mL
concentration in supernatant fluid ([4]; 0.0000 hr): 55.260 mg/mL
concentration in supernatant fluid ([4]; 3.0000 hr): 54.670 mg/mL
percent remaining ([4]; 3.0000 hr): 98.932%
concentration in supernatant fluid ([4]; 6.0000 hr): 49.100 mg/mL
percent remaining ([4]; 6.0000 hr): 88.853%
concentration in supernatant fluid ([4]; 9.0000 hr): 47.810 mg/mL
percent remaining ([4]; 9.0000 hr): 86.518%
concentration in supernatant fluid ([4]; 19.000 hr): 43.490 mg/mL
percent remaining ([4]; 19.000 hr): 78.701%
concentration in supernatant fluid ([4]; 23.500 hr): 39.120 mg/mL
percent remaining ([4]; 23.500 hr): 70.793%
concentration in supernatant fluid ([4]; 28.000 hr): 36.290 mg/mL
percent remaining ([4]; 28.000 hr): 65.671%
concentration in supernatant fluid ([4]; 32.500 hr): 33.540 mg/mL
percent remaining ([4]; 32.500 hr): 60.695%
concentration in supernatant fluid ([4]; 43.000 hr): 30.370 mg/mL
percent remaining ([4]; 43.000 hr): 54.958%
concentration in supernatant fluid ([4]; 49.000 hr): 21.580 mg/mL
percent remaining ([4]; 49.000 hr): 39.052%

N[C@@H](CC(=O)O)C(=O)O [L-Asp, L-aspartic acid]
concentration in supernatant fluid ([1]; 0.0000 hr): 0.43 mg/mL
concentration in supernatant fluid ([1]; 0.0000 hr, listed as L-aspartic acid): 0.43 mg/mL
concentration in supernatant fluid ([1]; 2.7500 hr): 0.11 mg/mL
percent remaining ([1]; 2.7500 hr): 25.581%
concentration in supernatant fluid ([1]; 13.500 hr): 0.09 mg/mL
percent remaining ([1]; 13.500 hr): 20.930%
concentration in supernatant fluid ([1]; 15.000 hr): 0.08 mg/mL
percent remaining ([1]; 15.000 hr): 18.605%
concentration in supernatant fluid ([1]; 19.500 hr): 0.09 mg/mL
percent remaining ([1]; 19.500 hr): 20.930%
concentration in supernatant fluid ([1]; 23.500 hr): 0.07 mg/mL
percent remaining ([1]; 23.500 hr): 16.279%
concentration in supernatant fluid ([1]; 23.500 hr, listed as L-aspartic acid): 0.07 mg/mL
concentration in supernatant fluid ([1]; 39.000 hr): 0.1 mg/mL
percent remaining ([1]; 39.000 hr): 23.256%
concentration in supernatant fluid ([1]; 47.000 hr): 0.16 mg/mL
percent remaining ([1]; 47.000 hr): 37.209%
concentration in supernatant fluid ([1]; 51.750 hr): 0.23 mg/mL
percent remaining ([1]; 51.750 hr): 53.488%
concentration in supernatant fluid ([1]; 68.500 hr): 0.55 mg/mL
percent remaining ([1]; 68.500 hr): 127.91%
concentration in supernatant fluid ([1]; 68.500 hr, listed as L-aspartic acid): 0.55 mg/mL
concentration in supernatant fluid ([2]; 0.0000 hr): 24.700 mg/mL
concentration in supernatant fluid ([2]; 6.2500 hr): 17.130 mg/mL
percent remaining ([2]; 6.2500 hr): 69.352%
concentration in supernatant fluid ([2]; 15.250 hr): 15.620 mg/mL
percent remaining ([2]; 15.250 hr): 63.239%
concentration in supernatant fluid ([2]; 25.750 hr): 10.870 mg/mL
percent remaining ([2]; 25.750 hr): 44.008%
concentration in supernatant fluid ([2]; 28.000 hr): 9.5300 mg/mL
percent remaining ([2]; 28.000 hr): 38.583%
concentration in supernatant fluid ([2]; 44.250 hr): 4.4200 mg/mL
percent remaining ([2]; 44.250 hr): 17.895%
concentration in supernatant fluid ([2]; 63.500 hr): 0.98 mg/mL
percent remaining ([2]; 63.500 hr): 3.9676%
concentration in supernatant fluid ([2]; 65.000 hr): 0.95 mg/mL
percent remaining ([2]; 65.000 hr): 3.8462%
concentration in supernatant fluid ([3]; 0.0000 hr): 57.440 mg/mL
concentration in supernatant fluid ([3]; 2.0000 hr): 53.770 mg/mL
concentration in supernatant fluid ([4]; 0.0000 hr): 55.740 mg/mL
concentration in supernatant fluid ([4]; 3.0000 hr): 53.380 mg/mL
percent remaining ([4]; 3.0000 hr): 95.766%
concentration in supernatant fluid ([4]; 6.0000 hr): 56.370 mg/mL
percent remaining ([4]; 6.0000 hr): 101.13%
concentration in supernatant fluid ([4]; 9.0000 hr): 56.680 mg/mL
percent remaining ([4]; 9.0000 hr): 101.69%
concentration in supernatant fluid ([4]; 19.000 hr): 59.270 mg/mL
percent remaining ([4]; 19.000 hr): 106.33%
concentration in supernatant fluid ([4]; 23.500 hr): 54.930 mg/mL
percent remaining ([4]; 23.500 hr): 98.547%
concentration in supernatant fluid ([4]; 28.000 hr): 52.620 mg/mL
percent remaining ([4]; 28.000 hr): 94.403%
concentration in supernatant fluid ([4]; 32.500 hr): 50.900 mg/mL
percent remaining ([4]; 32.500 hr): 91.317%
concentration in supernatant fluid ([4]; 43.000 hr): 53.520 mg/mL
percent remaining ([4]; 43.000 hr): 96.017%
percent remaining ([4]; 49.000 hr): 91.676%
rate of L-Asp utilization ([4]; NH4+ salt as compared to the Na+ salt): slower
